Data from patent US20200024278A1, “COMPOSITION COMPRISING ANTIBIOTIC COMPOUND AND AN HETEROCYCLIC COMPOUND AND THEIR USE IN PREVENTING OR TREATING BACTERIAL INFECTIONS” (MUTABILIS, priority 2016, published 2020).
Read-outs that look alike come from different tables or passages of the source.

How the values were obtained:
SAU 29213 = test: MIC, broth microdilution (CLSI), substance alone or ATB combined with compound at 4 or 8 μg/mL; assay type: cell-based, S. aureus; settings: Staphylococcus aureus
In short: (§1)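 Antibiotic MICs were determined in presence of fixed compound at 4 or 8 μg/mL, and compound MICs alone, by visual growth inhibition. Inoculum 5·10^5 CFU/mL in ca-MHB, incubated 35 °C for 16-20 h per CLSI-M7-A7. Glucose-6-phosphate (25 μg/ml) added when fosfomycin was tested.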

SPN 49619 = test: as above; assay type: cell-based, S. pneumoniae; settings: Streptococcus pneumoniae, SPN 49619
In short: as §1

PAE UFR90 [1] = assay type: cell-based, P. aeruginosa; settings: tntbc: Too numerous to be counted
Procedure: (§2) Method 4: Determination of the Spontaneous Mutation Frequency of the Compounds Alone and Combined with Antibiotics.
(§3) Bacterial isolates (Table 3) were grown overnight at 35° C. on TSA plates (Becton-Dickinson and Company) in ambient air. After 24 h of incubation, isolated bacterial colonies were added to cation-adjusted Mueller-Hinton broth (ca-MHB; Becton-Dickinson and Company) and cultured for approximately 6 h at 35° C. The pre-culture was stopped once bacteria have reached an OD600 nm of 0.5 for 200 μL. The bacterial suspension was centrifuged at 4000 rpm for 20 min. The supernatant was then discarded and the bacterial pellet was dissolved in ca-MHB to obtain 10^9 to 10^10 CFU/mL. Assays including Fosfomycin were supplemented with 25 μg/ml of Glucose-6-phosphate. 100 μL of the adjusted bacterial suspension were spread on agar plates containing different concentrations of the compounds of the present invention alone or combined with an antibacterial (Table 1). The plates were incubated for 24-48 h at 35° C. in ambient air. CFU were numerated on each agar plate containing compound. The number of resistant colonies obtained was divided by the starting inoculum to give the frequency of spontaneous resistance for a given incubation time (24 and 48 h).

PAE UFR48 [2] = assay type: cell-based, P. aeruginosa; settings: tntbc: Too numerous to be counted
Procedure: as §2, §3

PAE 27853 = assay type: cell-based, P. aeruginosa; settings: tntbc: Too numerous to be counted
Procedure: as §2, §3

PAE UFR90 [3] = test: MIC, broth microdilution (CLSI), substance alone or ATB combined with compound at 4 or 8 μg/mL; assay type: cell-based, P. aeruginosa; settings: PAE UFR90
In short: as §1

PAE UFR48 [4] = test: as above; assay type: cell-based, P. aeruginosa; settings: Pseudomonas aeruginosa, antibiotic alone; PAE UFR48; read-out: MIC ATB alone
In short: as §1

PAE 105250 = test: as above; assay type: cell-based, P. aeruginosa; settings: Pseudomonas aeruginosa; antibiotic alone; PAE 105250; read-out: MIC ATB alone
In short: as §1

KPN BAA-1898 = test: as above; assay type: cell-based, K. pneumoniae; settings: Klebsiella pneumoniae, BAA1898, KPN BAA-1898
In short: as §1

KPN UFR42 = test: as above; assay type: cell-based, K. pneumoniae; settings: Klebsiella pneumoniae; antibiotic alone; KPN UFR42; read-out: MIC ATB alone
In short: as §1

KPN UFR68 = test: as above; assay type: cell-based, K. pneumoniae; settings: Klebsiella pneumoniae, substance alone
In short: as §1

KPN 6299 = test: as above; assay type: cell-based, K. pneumoniae; settings: Klebsiella pneumoniae, antibiotic alone, read-out: MIC ATB alone
In short: as §1

ECL P99 = test: as above; assay type: cell-based, E. cloacae; settings: Enterobacter cloacae, ECL P99
In short: as §1

ECO 190317 = test: as above; assay type: cell-based, E. coli; settings: Escherichia coli, ECO 190317
In short: as §1

ECO UFR39 = test: as above; assay type: cell-based, E. coli; settings: Escherichia coli, ECO UFR39
In short: as §1

[5] = antibiotic alone, read-out: MIC ATB alone

For `C[C@@H]1O[C@@H]1P(=O)(O)O` [FOS, Fosfomycin, reference compound], the MIC (SAU 29213; antibiotic alone, SAU 29213, read-out: MIC ATB alone) was 2 µg/mL, the MIC (SAU 29213; substance alone, SAU 29213 (MSSA 29213), read-out: MIC) was 2 µg/mL and the MIC (SPN 49619; [5]) was 32 µg/mL. The MIC (SPN 49619; substance alone, read-out: MIC) was 32 µg/mL, the “Frequency of spontaneous resistance” value (PAE UFR90 [1]; single agent at 4.MIC) was 3.0E−07 and the “Frequency of spontaneous resistance” value (PAE UFR90 [1]; single agent at 8.MIC) was 2.0E−07. For the same molecule, the “Frequency of spontaneous resistance” value (PAE UFR48 [2]; single agent at 4.MIC) was 1.1E−06, the “Frequency of spontaneous resistance” value (PAE UFR48 [2]; single agent at 8.MIC) was 1.1E−06 and the “Frequency of spontaneous resistance” value (PAE 27853; single agent at 4.MIC) was 1.2E−06. For the same molecule, the “Frequency of spontaneous resistance” value (PAE 27853; single agent at 8.MIC) was 1.4E−06, the MIC (PAE UFR90 [3]; Pseudomonas aeruginosa, antibiotic alone, read-out: MIC ATB alone) was 8 µg/mL and the MIC (PAE UFR90 [3]; Pseudomonas aeruginosa, substance alone, read-out: MIC) was 16 µg/mL. For the same molecule, the MIC (PAE UFR90 [3]; substance alone) was 8 µg/mL, the MIC (PAE UFR48 [4]) was 16 µg/mL and the MIC (PAE 105250) was 256 µg/mL. For the same molecule, the MIC (KPN BAA-1898; [5]) was 64 µg/mL, the MIC (KPN BAA-1898; substance alone, read-out: MIC) was 64 µg/mL and the MIC (KPN UFR42) was 128 µg/mL. It also gave an MIC (KPN UFR68) of 32 µg/mL, an MIC (KPN 6299) of over 128 µg/mL and an MIC (ECL P99; [5]) of over 1020 µg/mL. The MIC (ECL P99; substance alone, read-out: MIC) was over 1020 µg/mL, the MIC (ECO 190317; [5]) was 0.5 µg/mL and the MIC (ECO 190317; substance alone, read-out: MIC) was 0.5 µg/mL. The MIC (ECO UFR39; [5]) was 4 µg/mL and the MIC (ECO UFR39; substance alone, read-out: MIC) was 4 µg/mL.
